This is an account of results in patent US20080193563A1, “HARNESSING WNT SIGNALING TO RESTRICT HIV REPLICATION” (priority 2006, published 2008).

For one assay, the system named is HIV-Bal in U87MG. The assay is described as follows: Cytokine pre-stimulation and HIV-Bal replication in U87MG, p24 ELISA. The format is cell-based. The settings on record: 24 h pre-stimulation, 0-1000 ng/ml, p24 day 7. Here is the method: U87MG (A) and HFA (B) were pre-stimulated with increasing doses of either GM-CSF or IFNγ for 24 h followed by HIV-BAL infection for 24 hours. HIV replication was determined by measuring HIV p24 levels by ELISA seven days post-infection. The dotted line represents basal level of HIV infection of astrocytes without cytokine pre-treatment. Data is representative of three experiments performed in quadruplicate. Error bars represent standard deviations of the mean. Asterisks denote significant values (p<0.05) in comparison to untreated cultures as evaluated by analysis of variance.
To determine if pre-stimulation of astrocytes primes astrocytes, for productive HIV infection, U87MG and HFA were pre-treated for 24 hours with TNFγ, GM-CSF, or IFNγ at various concentrations (0-1000 ng/ml) then infected with HIV-Bal at 10 ng of HIV p24/1×10^6 cells for 24 hours. The cells were then washed extensively or trypsinized to remove bound virus and propagated in the presence of the respective cytokine concentration. HIV infection was monitored by p24 ELISA seven days post-infection. […]
IFN-γ Treatment and HIV Infection. […] HIV infection was monitored at day 7 postinfection by measuring p24 levels by conventional enzyme-linked immunosorbent assay (ELISA) (National Cancer Institute, Frederick, Md.).
(In an ELISA, binding on a coated surface is turned into a signal by an enzyme label.)

The test system of the next assay is TCF-4 / Wnt signaling. Briefly: TOPflash luciferase reporter (Wnt signaling) in U87MG. The format is cell-based, human. The settings on record: IFNγ treated, 24 hrs post-transfection. Here is the method: FIG. 11 Impact of IFN-γ on Wnt signaling. U87MG cells were left untreated or treated with IFN-γ for 24 hrs and then transfected with either TOPflash (containing four native TCF/LEF binding sites) and Renilla constructs or GFP and Renilla constructs. Transfected cells were then cultured with or without their initial treatment (with or without IFN-γ). Luciferase relative light activity (relative light units) was measured 24 hrs later using a luminometer and normalized to Renilla activity. Data are based on at least three experiments and are presented as the increase (n-fold) in luciferase relative light units over Renilla ±standard deviation.
Wnt signaling in astrocytes and its inhibition by IFNγ was investigated: Although inhibiting TCF-4 with a dominant negative mutant stresses the importance of active TCF-4 in restricting HIV replication, it is not informative regarding the mechanism by which IFNγ overcomes astrocyte restriction to productive HIV replication. […] Luc activity was measured 24 hrs post-transfection TCF-4 reporter construct is an indicator of basal and inducible levels of Wnt signaling.
Active Wnt signaling in astrocytes and its inhibition by IFN-γ. […] Basal TCF-4 activity was detected in astrocytes, indicating active Wnt signaling in human astrocytes (FIG. 11). […]
On the technique in general: In a reporter assay the amount or activity of a reporter protein is the signal.

As for “IFNγ: cytokine secreted by lymphocytes, activated microglia and astrocytes; used to prime astrocytes”, the “Maximal induction of HIV replication vs untreated/infected cultures” value in the assay on HIV-Bal in U87MG is given as 10 fold. Moreover, in the assay on TCF-4 / Wnt signaling, the “Reduction of basal Wnt signaling (TOPflash luciferase)” value is “approximately 50%”.
